Assay results reported in article PMC11339798, “Dual inhibitors of Pseudomonas aeruginosa virulence factors LecA and LasB” (Chemical Science, 2024).
Like-named read-outs stand apart in the source and are kept apart here.

What was measured:
LecA = target: T1, LecA (Pseudomonas aeruginosa, UniProt Q05097); assay: Surface plasmon resonance direct LecA binding assay (immobilized LecA); design: species or system P. aeruginosa; conditions: for time to reach equilibrium binding with immobilized LecA / k a / k d: SPR; for k a / k d: immobilized LecA
T1 construct: made in house; host or cells: E. coli (plasmid pET25-pail)
From the text: Therefore, we measured the LecA affinity of thiol derivatives 17, 18, 24 and 25 and disulfides 26a, 26b and 27 using surface plasmon resonance (SPR) with LecA covalently immobilized on a sensor chip via amide coupling (Fig. 5 and Table 1). […] Thiols 17, 18, 24 and 25 reached equilibrium binding within 60 s of interaction with immobilized LecA, followed by their dissociation with moderate off-rates. […] Due to the very small off-rates for 26a, 26b and 27, these values have been calculated based on the response at […] of the injected compound and monitoring their dissociation for 30 min (Fig. S2 ^†). The observed very tight binding to immobilized LecA required optimization of the protein surface regeneration procedure. Effective conditions were identified as one injection of 50 mm isopropyl β-D-thiogalactoside in the running buffer, followed by one injection of 20 mm EDTA disodium salt in water. The regenerated chip surface was controlled using an injection of 1 to ensure that the activity of LecA was maintained.
Surface plasmon resonance direct LecA binding assay
SPR experiments were performed on a Reichert 2-channel SPR SR7500DC (Reichert Technologies Life Sciences, Buffalo, NY, USA) at 25 °C. For LecA immobilization, the surface of a HC1000M sensor chip (XanTec bioanalytics GmbH, Düsseldorf, Germany) was preequilibrated with borate buffer (1 M NaCl, 0.1 M sodium borate pH 9.0), followed by activation of the polycarboxylate hydrogel with 0.2 M N-hydroxysuccinimide (NHS) and 0.4 M 1-ethyl-3-(3-dimethylaminopropyl)carbodiimide hydrochloride (EDC‧HCl) in MilliQ water in both channels for 240 s (flow rate 10 μL/min) until the binding response reached 1200 RU.
Then, LecA (100 μg/mL) in 10 mM sodium acetate pH 3.6 was injected on the activated chip surface of one channel (injection time 420 s, flow rate 10 μL/min) and 6000 RU of LecA were immobilized. Unreacted NHS esters in both channels were blocked with 1 M ethanolamine hydrochloride in MilliQ water pH 8.5 (injection time 360 s, flow rate 10 μL/min).
Test compound stock solutions were prepared in DMSO (20 mM stocks for monovalent LecA inhibitors, 20 µM stocks for divalent LecA inhibitors) and were subsequently diluted in 10 mM phosphate buffer (pH 7.4, 2.7 mM KCl, 137 mM NaCl, 100 μM CaCl2) to obtain solutions with […]
Monovalent inhibitors 17, 18, 24 and 25 were injected for 120 s (flow rate 50 μL/min) at concentrations ranging from 0.39–100 µM. Divalent inhibitors 26a, 26b and 27 were injected for 120 s (flow rate 50 μL/min) at concentrations 50–350 nM. The chip surface was regenerated after each inhibitor injection by one injection of 50 mM IPTG in running buffer (10 mM phosphate buffer, pH 7.4, 2.7 mM KCl, 137 mM NaCl, 100 μM CaCl2, 2% DMSO) followed by one injection 20 mM EDTA disodium salt in MilliQ water, and then followed by three injections of the running buffer (injection time 120 s, flow rate 50 μL/min). 100 µM pNP-Gal (1) in running buffer was injected before each analyte to monitor and ensure chip regeneration and […]
Affinity/equilibrium analysis was performed for 1 on the same chip. A stock solution of 1 (10 mM in PBS/CaCl2 buffer) was prepared, then diluted to the required concentrations in running buffer and injected at 1.56–400 µM (injection time 60 s, flow rate 50 μL/min) without regeneration steps. Data analysis was performed using TraceDrawer software (Ridgeview Instruments) using a 1:1 binding model to fit the experimental data. Spikes at the end of the injections were removed in TraceDrawer during the data analysis.

LasB [1] = target: T2, LasB (Pseudomonas aeruginosa, UniProt Q02RJ6); assay: FRET-based in vitro LasB inhibition (proteolysis) assay; type: biochemical, P. aeruginosa PA14
T2 construct: P. aeruginosa PA14 culture supernatant; made in house; host or cells: native secreted enzyme purified from P. aeruginosa PA14 culture supernatant (not recombinant)
Procedure: The LasB activity of the thiol derivatives 11, 12, 17, 18, 24 and 25 was tested using a functional FRET-based in vitro proteolysis assay (Fig. 4A). […]
Expression and purification of LasB and LecA
LecA was expressed recombinantly using E. coli pET25-pail, whereas LasB was isolated from P. aeruginosa PA14 culture supernatant as described previously. 1,2 […]
In vitro inhibition assay for LasB
The in vitro inhibition assay was performed as described previously,2 using purified LasB (final concentration 0.3 nM), the fluorogenic substrate 2-aminobenzoyl-Ala-Gly-Leu-Ala-4-nitrobenzylamide (purchased from Peptides International (Louisville, KY, USA) or Vivitide, LLC (Gardner, MA, USA), final concentration 150 µM)) in assay buffer (50 mM Tris, pH 7.2, 2.5 mM CaCl2, 0.075% Pluronic F-127, 5% DMSO). Fluorescence was measured using a CLARIOstar plate reader (BMG Labtech, Ortenberg, Germany). IC50 values were calculated using GraphPad Prism 8 (GraphPad Software, San Diego, CA, USA) from at least three independent experiments performed in duplicate.

LasB [2] = target: T2, LasB; conditions: previously observed activities of reported inhibitors; cited from earlier work
[3] = tested on: LecA-FITC binding to human A549 cells; assay: Inhibition of LecA-FITC adhesion to A549 cells by fluorescence microscopy; type: cell-based; conditions: concentrations tested 1-100 µM, 10 μM LecA-FITC, 4 °C, 30 min
Procedure: LecA-mediated cell adhesion is crucial for the initial infection and host-cell invasion of P. aeruginosa. Therefore, compounds 1 and 2, a combination of 1+2 and the dual inhibitor 12 were assessed for their ability to inhibit LecA-binding to human A549 cells. 10 μM of LecA-FITC and different concentrations of the respective compounds were incubated at 4 °C for 30 min with confluent A549 cells.
10 min, facilitating the separation of bacterial cells from the supernatant. The latter was filtered through a 0.22 µm sterile filter and stored at –80 °C until further use. […]
CO2. […] The plates were then incubated for an additional 30 min at 37 °C and then, the UV absorbance was measured using a PHERAstar microplate reader. The test samples were read at a wavelength of 550 nm, while the blank was read at 620 nm. At last, the data were statistically analyzed and presented graphically using GraphPad Prism 9 (Figure S4 and S5). […]
have any negative effects. The plate was then incubated at 4 °C for 30 min and wells were washed 5 times with PBS prior to imaging via fluorescence microscopy.
Fluorescence image acquisition, processing, and quantification
Fluorescence images were captured using an inverted fluorescence microscope (Leica DMi8) equipped with a 20x objective (HC PL APO CS2 20x/0.75 IMM UV), an FITC filter cube (EX: […]

A549 cells = assay: Inhibition of LasB-dependent cytotoxicity of P. aeruginosa PAO1 culture supernatant on A549 cells (MTT); type: cell-based, human; conditions: 1 μM compound, 10% (v/v) PAO1 supernatant
Procedure: Next, we set out to analyze the ability of the dual inhibitor 12 and the individual treatment or combination of galactoside 1 and thiol 2 to reduce LasB-dependent cytotoxicity from P. aeruginosa PAO1 culture supernatant on A549 cells. None of the investigated compounds influenced A549 cell viability at 100 μM in the absence of bacterial culture supernatant (Fig. S4 ^†). […]
In vitro evaluation of 12 and a combination of 1 and 2 using P. aeruginosa culture supernatant and A549 cells in a cell viability assay
The A549 cell line, derived from human lung adenocarcinoma, was grown in Dulbecco's Modified Eagle Medium (DMEM) supplemented with 10% Fetal Bovine Serum (FBS) and 1% penicillin-streptomycin. The cells were cultured following standard protocols for cell […]
To prepare the bacterial culture supernatant, individual flasks containing 15 mL of lysogeny broth (LB) culture medium were inoculated with PAO1 or PAO1 ΔlasB strains. Culture flasks were placed on a shaker and incubated at 37 °C and 180 rpm overnight for 18 hours. Following incubation, the bacterial cultures were subjected to centrifugation at 4 °C and 5000 rpm for […]
10 min, facilitating the separation of bacterial cells from the supernatant. The latter was filtered through a 0.22 µm sterile filter and stored at –80 °C until further use.
In a flat bottom 96-well plate (Corning™ Costar™), each well was seeded with 2.5–3.5*10 3 cells in 100 µL DMEM/FCS and then incubated at a temperature of 37 °C with 5% CO2 for 24 hours. Then, compounds 12 and 1 combined with 2 in concentrations of 100 µM, 10 µM, and 1 µM were mixed with 10% (v/v) of culture supernatant of P. aeruginosa PAO1 (DSM 22644, ATCC 15692) in DMEM/FCS. To minimize the potential negative effect of DMSO, the compound was initially dissolved in 99.9% DMSO, and a final assay concentration of 0.5% DMSO was applied. Additionally, the cells were exposed to 10% (v/v) PAO1 ΔlasB culture supernatant to analyze the effect caused by LasB, while DMEM/FCS without any treatment served as a control. The plates were then incubated at 37 °C with 5% CO2 for 24 hours before conducting the MTT assay.
To assess cell viability, the medium in the well plates was aspirated and a single wash was performed using 100 µL of phosphate buffered saline, pH 7.4 (PBS). A solution of 5 mg MTT (3-(4,5-dimethylthiazol-2-yl)-2,5-diphenyl tetrazolium bromide) per mL PBS was prepared and diluted to a concentration of 10% (v/v) in DMEM/FCS. Subsequently, 100 µL of this MTT solution was added to each well, and the plates were incubated at 37 °C for 3 hours with 5%
CO2. After incubation, the MTT solution was carefully removed, and the formazan crystals were dissolved by adding 150 µL of lysis solution (250 mL DMSO, 25 g SDS, and 1.25 mL AcOH) to each well. The plates were then incubated for an additional 30 min at 37 °C and then, the UV absorbance was measured using a PHERAstar microplate reader. The test samples were read at a wavelength of 550 nm, while the blank was read at 620 nm. At last, the data were statistically analyzed and presented graphically using GraphPad Prism 9 (Figure S4 and S5).
Evaluation of compounds 1, 2 and 12 in inhibiting LecA adhesion to A549 cells via […]
The A549 cell line were cultured following the protocols for cell maintenance described above.
In a flat-bottom cell culture black 96-well plate (Greiner Bio-One, #Cat 655090) each well was seeded with 1*104 cells in 100 µL DMEM/FCS and subsequently, incubated overnight at 37 °C with 5% CO2. […]

T2 sequence (Q02RJ6 198-498): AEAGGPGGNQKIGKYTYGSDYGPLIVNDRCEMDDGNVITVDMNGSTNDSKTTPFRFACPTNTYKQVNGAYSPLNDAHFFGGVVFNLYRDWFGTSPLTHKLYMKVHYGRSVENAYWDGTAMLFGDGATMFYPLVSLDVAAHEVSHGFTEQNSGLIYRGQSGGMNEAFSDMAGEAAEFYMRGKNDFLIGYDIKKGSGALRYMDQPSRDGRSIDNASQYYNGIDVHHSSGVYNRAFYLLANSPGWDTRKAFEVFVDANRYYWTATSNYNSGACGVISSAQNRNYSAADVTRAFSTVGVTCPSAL
T1 sequence (Q05097 whole entry): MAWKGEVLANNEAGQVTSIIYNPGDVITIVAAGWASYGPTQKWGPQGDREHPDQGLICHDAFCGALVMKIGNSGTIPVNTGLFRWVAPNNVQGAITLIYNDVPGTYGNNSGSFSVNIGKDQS

SMILES | Kd (LecA) [nM] | time to reach equilibrium binding with immobilized LecA (LecA) [s] | k a (LecA) | k d (LecA) | IC50 (LasB [1]) [nM] | IC50 (LasB [2]) [nM] | inhibition of binding of LecA-FITC to A549 cells [3] | A549 cell viability under PAO1 culture supernatant (A549 cells)
O=C(Nc1ccc(S[C@@H]2O[C@H](CO)[C@H](O)[C@H](O)[C@H]2O)cc1)[C@@H](S)Cc1ccccc1 [Compound 24] | 840 ± 160 | ≤ 60 | 0.88 ± 0.23 ×10^4 M^−1 s^−1 | 72 ± 5 ×10^−4 s^−1 | 220 | – | – | –
CC(C)C[C@@H](S)C(=O)Nc1ccc(S[C@@H]2O[C@H](CO)[C@H](O)[C@H](O)[C@H]2O)cc1 [Compound 18] | 630 ± 290 | ≤ 60 | 1.41 ± 0.47 ×10^4 M^−1 s^−1 | 82 ± 11 ×10^−4 s^−1 | 510 | – | – | –
CC(C)C[C@H](S)C(=O)Nc1ccc(S[C@@H]2O[C@H](CO)[C@H](O)[C@H](O)[C@H]2O)cc1 [Compound 25] | 1000 ± 590 | ≤ 60 | 0.90 ± 0.31 ×10^4 M^−1 s^−1 | 85 ± 2 ×10^−4 s^−1 | 770 | – | – | –
O=C(Nc1ccc(S[C@@H]2O[C@H](CO)[C@H](O)[C@H](O)[C@H]2O)cc1)[C@H](S)Cc1ccccc1 [Compound 17] | 1300 ± 540 | ≤ 60 | 0.71 ± 0.14 ×10^4 M^−1 s^−1 | 86 ± 20 ×10^−4 s^−1 | 730 | – | – | –
O=C(Nc1ccccc1)C(S)Cc1ccccc1 (centres unmarked) [Compound 3] | – | – | – | – | – | 1200 | – | –
Cc1ccc(NC(=O)C(S)CC(C)C)cc1 (centres unmarked) [Compound 2, reference compound] | – | – | – | – | – | – | failed to do so | neither 1 nor 2 nor their combination had any effect
